Measured values from US4820694A, “Modifications of 3-O-demethylmycinose in macrocin and lactenocin” (priority 1986, dated 1989).
≈ marks a conversion by molar mass, not a printed value. Read-outs that look alike come from different tables or passages of the source.

How the values were obtained:
[1] = system: Streptococcus pyogenes C203; assay: protection of mice experimentally infected with S. pyogenes C203; assay type: in vivo
Method: The formula 1 compounds have shown in vivo antimicrobial activity against experimentally-induced infections in laboratory animals. When two doses of test compound were administered to mice experimentally infected with S. pyrogenes C203, the activity observed was measured as an ED50 value [effective dose in mg/kg to protect 50% of the test animals: see Warren Wick, et al., J. Bacteriol. 81, 233-235 (1961)].
^a mg/kg × 2; doses given 1 and 4 hours postinfection

Mycoplasma hyorhinis 29E = assay: broth-dilution microtiter MIC test; assay type: cell-based; settings: Mycoplasma, 29E
Method: (§1) The MIC's in Table III were determined by standard agar-dilution assays. The MIC's in Table IV were obtained using conventional brothdilution microtiter tests.

[2] = system: Pasteurella hemolytica 41D; assay: broth-dilution microtiter MIC test; assay type: cell-based; settings: Pasteurella, 41D
Method: as §1

[3] = system: Pasteurella multocida 60A; assay: broth-dilution microtiter MIC test; assay type: cell-based; settings: Pasteurella multocida, 60A
Method: as §1

Streptococcus sp. 19F = assay: broth-dilution microtiter MIC test; assay type: cell-based; settings: Streptococcus, SP.19F
Method: as §1

[4] = system: Bordetella bronchiseptica; assay: broth-dilution microtiter MIC test; assay type: cell-based; settings: Bordetella bronchiseptica
Method: as §1

[5] = system: Mycoplasma gallisepticum 29C; assay: broth-dilution microtiter MIC test; assay type: cell-based; settings: Mycoplasmoides gallisepticum, 29C
Method: as §1

[6] = system: Pasteurella hemolytica 23C; assay: broth-dilution microtiter MIC test; assay type: cell-based; settings: Pasteurella, 23C
Method: as §1

Mycoplasma synoviae 40A = assay: broth-dilution microtiter MIC test; assay type: cell-based; settings: Mycoplasmopsis synoviae, 40A
Method: as §1

[7] = system: Pasteurella multocida 40G; assay: broth-dilution microtiter MIC test; assay type: cell-based; settings: Pasteurella multocida, 40G
Method: as §1

[8] = system: Staphylococcus aureus 19C; assay: broth-dilution microtiter MIC test; assay type: cell-based; settings: Staphylococcus aureus, 19C
Method: as §1

[9] = system: Pasteurella multocida 68C; assay: broth-dilution microtiter MIC test; assay type: cell-based; settings: Pasteurella multocida, 68C
Method: as §1

[10] = system: Mycoplasma gallisepticum 36H; assay: broth-dilution microtiter MIC test; assay type: cell-based; settings: Mycoplasmoides gallisepticum, 36H
Method: as §1

[11] = system: Mycoplasma gallisepticum 15E; assay: broth-dilution microtiter MIC test; assay type: cell-based; settings: Mycoplasmoides gallisepticum, 15E
Method: as §1

[12] = system: Pasteurella multocida 17E; assay: broth-dilution microtiter MIC test; assay type: cell-based; settings: Pasteurella multocida, 17E
Method: as §1

[13] = system: Pasteurella multocida 22A; assay: broth-dilution microtiter MIC test; assay type: cell-based; settings: Pasteurella multocida, 22A
Method: as §1

[14] = system: Pasteurella hemolytica 22C; assay: broth-dilution microtiter MIC test; assay type: cell-based; settings: Pasteurella, 22C
Method: as §1

Escherichia coli EC14 = assay: standard agar-dilution MIC assay; assay type: cell-based
Method: as §1

[15] = system: Streptococcus Group D 9960; assay: standard agar-dilution MIC assay; assay type: cell-based; settings: GROUPD9960, read-out: MIC
Method: as §1

[16] = system: Staphylococcus aureus V41; assay: standard agar-dilution MIC assay; assay type: cell-based; settings: Staphylococcus aureus, V41
Method: as §1

[17] = system: Staphylococcus aureus X400; assay: standard agar-dilution MIC assay; assay type: cell-based; settings: Staphylococcus aureus, X400
Method: as §1

[18] = system: Staphylococcus aureus X1.1; assay: standard agar-dilution MIC assay; assay type: cell-based; settings: Staphylococcus aureus, X1.1
Method: as §1

[19] = system: Staphylococcus epidermidis EP12; assay: standard agar-dilution MIC assay; assay type: cell-based
Method: as §1

[20] = system: Klebsiella pneumoniae X68; assay: standard agar-dilution MIC assay; assay type: cell-based; settings: Klebsiella pneumoniae, X68
Method: as §1

[21] = system: Haemophilus influenzae 76; assay: standard agar-dilution MIC assay; assay type: cell-based; settings: Haemophilus influenzae, 76
Method: as §1

[22] = system: Haemophilus influenzae C.L.; assay: standard agar-dilution MIC assay; assay type: cell-based; settings: Haemophilus influenzae
Method: as §1

[23] = system: Pseudomonas aeruginosa X239; assay: standard agar-dilution MIC assay; assay type: cell-based; settings: Pseudomonas aeruginosa, X239
Method: as §1

[24] = system: Streptococcus Group D X66; assay: standard agar-dilution MIC assay; assay type: cell-based; settings: read-out: MIC
Method: as §1

[25] = system: Staphylococcus epidermidis EPI1; assay: standard agar-dilution MIC assay; assay type: cell-based; settings: Staphylococcus epidermidis, EPI1
Method: as §1

[26] = system: Streptococcus pyogenes C203; assay: standard agar-dilution MIC assay; assay type: cell-based; settings: Streptococcus pyogenes, C203
Method: as §1

[27] = system: Staphylococcus aureus S13E; assay: microbe, parasite or virus in culture; assay type: cell-based; settings: Staphylococcus aureus, S13E
Method: as §1

[28] = system: Streptococcus pneumoniae Park I; assay: microbe, parasite or virus in culture; assay type: cell-based; settings: Streptococcus pneumoniae
Method: as §1

[29] = broth-dilution microtiter, read-out: MIC

## CCC1OC(=O)CC(O)C(C)C(OC2OC(C)C(OC3CC(C)(O)C(O)C(C)O3)C(N(C)C)C2OC(C)=O)C(CC=O)CC(C)C(=O)C=CC(C)=CC1COC1OC(C)C(OC(C)=O)C(OC(=O)Cc2ccccc2)C1OC (centres unmarked) [Compound 17, 2',4'"-Di-O-acetyl-3'"-O-phenylacetylmacrocin]
[1]; C203, sc
  ED50: > 10 mg/kg
Mycoplasma hyorhinis 29E
  MIC: 3.12 µg/mL (≈ 2.83 µM)
[2]
  MIC: > 50 µg/mL
[3]
  MIC: > 50 µg/mL
Streptococcus sp. 19F
  MIC: 1.56 µg/mL (≈ 1.41 µM)
[4]
  MIC: > 50 µg/mL
[5]
  MIC: 0.39 µg/mL (≈ 0.353 µM)
[6]
  MIC: > 50 µg/mL
Mycoplasma synoviae 40A
  MIC: 1.56 µg/mL (≈ 1.41 µM)
[7]
  MIC: > 50 µg/mL
[8]
  MIC: 3.12 µg/mL (≈ 2.83 µM)
[9]
  MIC: > 50 µg/mL
[10]
  MIC: 12.5 µg/mL (≈ 11.3 µM)
[11]
  MIC: 12.5 µg/mL (≈ 11.3 µM)
[12]
  MIC: > 50 µg/mL
[13]
  MIC: > 50 µg/mL
[14]
  MIC: > 50 µg/mL
Escherichia coli EC14
  MIC: > 128 µg/mL
[15]
  MIC: 2 µg/mL (≈ 1.81 µM)
[16]
  MIC: 2 µg/mL (≈ 1.81 µM)
[17]
  MIC: 4 µg/mL (≈ 3.62 µM)
[18]
  MIC: 2 µg/mL (≈ 1.81 µM)
[19]
  MIC: 2 µg/mL (≈ 1.81 µM)
[20]
  MIC: > 128 µg/mL
[21]
  MIC: > 128 µg/mL
[22]
  MIC: > 128 µg/mL
[23]
  MIC: > 128 µg/mL
[24]
  MIC: 2 µg/mL (≈ 1.81 µM)
[25]
  MIC: 4 µg/mL (≈ 3.62 µM)
[26]
  MIC: 1 µg/mL (≈ 0.906 µM)
[27]
  MIC: 4 µg/mL (≈ 3.62 µM)
[28]
  MIC: 1 µg/mL (≈ 0.906 µM)

## CCC1OC(=O)CC(O)C(C)C(OC2OC(C)C(OC3CC(C)(O)C(O)C(C)O3)C(N(C)C)C2OC(C)=O)C(CC=O)CC(C)C(=O)C=CC(C)=CC1COC1OC(C)C(OC(=O)COc2ccccc2)C(OC(=O)COc2ccccc2)C1OC (centres unmarked) [Compound 15, 2'-O-Acetyl-3'",4'"-di-O-phenoxyacetyl-macrocin]
[1]; C203, Oral, mice, mg/kg × 2, doses given 1 and 4 hours postinfection, read-out: ED50
  ED50: 87.1 mg/kg
[1]; C203, sc, Subcutaneous, mice, mg/kg × 2, doses given 1 and 4 hours postinfection, read-out: ED50
  ED50: > 10 mg/kg
Mycoplasma hyorhinis 29E
  MIC: 6.25 µg/mL (≈ 5.16 µM)
[2]; [29]
  MIC: > 50 µg/mL
[3]; broth-dilution microtiter, Avian isolate, read-out: MIC
  MIC: > 50 µg/mL
Streptococcus sp. 19F
  MIC: 3.12 µg/mL (≈ 2.57 µM)
[4]; [29]
  MIC: > 50 µg/mL
[5]
  MIC: 6.25 µg/mL (≈ 5.16 µM)
[6]; [29]
  MIC: > 50 µg/mL
Mycoplasma synoviae 40A
  MIC: 3.12 µg/mL (≈ 2.57 µM)
[7]; [29]
  MIC: > 50 µg/mL
[8]
  MIC: 25 µg/mL (≈ 20.6 µM)
[9]; [29]
  MIC: > 50 µg/mL
[10]
  MIC: 50 µg/mL (≈ 41.2 µM)
[11]
  MIC: 50 µg/mL (≈ 41.2 µM)
[12]; broth-dilution microtiter, Bovine isolate, read-out: MIC
  MIC: > 50 µg/mL
[13]; [29]
  MIC: > 50 µg/mL
[14]; [29]
  MIC: > 50 µg/mL
Escherichia coli EC14; agar-dilution, read-out: MIC
  MIC: > 128 µg/mL
[15]
  MIC: 32 µg/mL (≈ 26.4 µM)
[16]
  MIC: 8 µg/mL (≈ 6.6 µM)
[17]
  MIC: 64 µg/mL (≈ 52.8 µM)
[18]
  MIC: 4 µg/mL (≈ 3.3 µM)
[19]
  MIC: 32 µg/mL (≈ 26.4 µM)
[20]; agar-dilution, read-out: MIC
  MIC: > 128 µg/mL
[21]; agar-dilution, Ampicillin-resistant strain, read-out: MIC
  MIC: > 128 µg/mL
[22]; agar-dilution, Ampicillin-sensitive strain, read-out: MIC
  MIC: > 128 µg/mL
[23]; agar-dilution, read-out: MIC
  MIC: > 128 µg/mL
[24]
  MIC: 32 µg/mL (≈ 26.4 µM)
[25]
  MIC: 32 µg/mL (≈ 26.4 µM)
[26]
  MIC: 4 µg/mL (≈ 3.3 µM)
[27]
  MIC: 32 µg/mL (≈ 26.4 µM)
[28]
  MIC: 0.5 µg/mL (≈ 0.412 µM)
